Measurements taken from article PMC12406203 (Journal of Medicinal Chemistry, 2025).
Values joined by “and” are separate entries in the source; they are usually repeats but may differ in a detail not shown here. Equal entries are not always repeated.

Experiments:
[1] = system: mice (locomotor activity); assay: Locomotor activity test; conditions: 10 mg/kg i.p.
From the text: The mice had unlimited access to food and water prior to the experiment. Specified conditions for the maintenance of mice were ensured throughout the experiment, including tree bedding (Transwior, Poland) and cage enrichment (tunnels, nesting material, wooden igloos, etc.). For behavioral tests, the mice were selected randomly; each group consisted of 7–10 mice. […] After in vivo tests, the animals were immediately euthanized, and their tissues were collected and stored for further ex vivo testing.
They were administered intraperitoneally (i.p.) 60 min before the acquisition trial of the PA, NOR, and MWM tasks.
The locomotor activity test was performed using activity cages (40 cm × 40 cm × 30 cm, supplied with IR beam emitters) (Activity Cage 7441, Ugo Basile, Italy) connected to a counter for the recording of light-beam interrupts. […] The animals’ movements (i.e., the number of light-beam crossings) were counted during the next 60 min of the test. Before the experiment, the mice were habituated to activity cages for 15 min.

BV2 cells = assay: MTS metabolic activity (cytotoxicity); assay type: cell-based, murine; conditions: BV2, MTS assay, 24 h, concentrations of 5 μM or less
Experimental: The human hepatocellular carcinoma HepG2 and human neuroblastoma SH-SY5Y cell lines were purchased from American Type Culture Collection (Manassas, VA, USA). The murine microglia BV2 cells were a generous gift from Dr. Biljana Božić Nedeljković (University of Belgrade, Belgrade, Serbia). Cells were cultured in Advanced Dulbecco’s modified Eagle’s medium (Gibco, Thermo Fisher Scientific, Waltham, MA, USA) supplemented with 10% fetal bovine serum (FBS, Gibco), 2 mM L-glutamine, 50 U/mL penicillin and 50 μg/mL streptomycin (Sigma, St. Louis, MO, USA) in a humidified atmosphere of 95% air and 5% CO2 at 37 °C, and grown to 80% confluence. Prior to cell treatment, complete medium was replaced with serum-free medium. […]
BV2 cells (5 × 10^3/well) and HepG2 and SH-SY5Y cells (1 × 10^4/well) were seeded in 96-well plates and assessed by MTS ([3-(4,5-dimethylthiazol-2-yl)-5-(3-carboxymethoxyphenyl)-2-(4-sulfophenyl)-2H tetrazolium, inner salt) assay for their response to compounds 94 and 95. Cells were treated with increasing concentrations of compounds (1–100 μM) in serum-free medium, and metabolic activity was assessed after 24 h using the CellTiter 96 Aqueous One Solution Cell Proliferation Assay (Promega, Madison, WI, USA), in accordance with the manufacturer’s instructions. Absorbance was measured with an automatic microplate reader (Tecan Safire^2, Switzerland) at a wavelength of 492 nm. […]

HepG2 cells = assay: MTS metabolic activity (cytotoxicity); assay type: cell-based, human; conditions: HepG2, MTS assay, 24 h, concentrations of 5 μM or less
Experimental: (§1) The human hepatocellular carcinoma HepG2 and human neuroblastoma SH-SY5Y cell lines were purchased from American Type Culture Collection (Manassas, VA, USA). The murine microglia BV2 cells were a generous gift from Dr. Biljana Božić Nedeljković (University of Belgrade, Belgrade, Serbia). Cells were cultured in Advanced Dulbecco’s modified Eagle’s medium (Gibco, Thermo Fisher Scientific, Waltham, MA, USA) supplemented with 10% fetal bovine serum (FBS, Gibco), 2 mM L-glutamine, 50 U/mL penicillin and 50 μg/mL streptomycin (Sigma, St. Louis, MO, USA) in a humidified atmosphere of 95% air and 5% CO2 at 37 °C, and grown to 80% confluence. Prior to cell treatment, complete medium was replaced with serum-free medium. Compounds 94 and 95 were prepared as a stock solution of 30 mM in DMSO and were used at concentrations of 1–100 μM.
(§2) BV2 cells (5 × 10^3/well) and HepG2 and SH-SY5Y cells (1 × 10^4/well) were seeded in 96-well plates and assessed by MTS ([3-(4,5-dimethylthiazol-2-yl)-5-(3-carboxymethoxyphenyl)-2-(4-sulfophenyl)-2H tetrazolium, inner salt) assay for their response to compounds 94 and 95. Cells were treated with increasing concentrations of compounds (1–100 μM) in serum-free medium, and metabolic activity was assessed after 24 h using the CellTiter 96 Aqueous One Solution Cell Proliferation Assay (Promega, Madison, WI, USA), in accordance with the manufacturer’s instructions. Absorbance was measured with an automatic microplate reader (Tecan Safire^2, Switzerland) at a wavelength of 492 nm. Results are presented as a percentage of the control (DMSO).

SH-SY5Y cells = assay: MTS metabolic activity (cytotoxicity); assay type: cell-based, human; conditions: MTS assay, 24 h, concentrations of 5 μM or less
Experimental: as §1, §2

[2] = system: scopolamine-induced cognitive deficits in mice; assay: Novel object recognition task, scopolamine-induced amnesia; assay type: in vivo; conditions: for efficacy in NOR task: 5 mg/kg i.p., scopolamine model; for preference for the novel object (NOR task): 10 mg/kg i.p., vs mice treated with scopolamine alone
From the text: In the scopolamine model, the PA and NOR tasks were used for dose selection for further testing.
The mice had unlimited access to food and water prior to the experiment. Specified conditions for the maintenance of mice were ensured throughout the experiment, including tree bedding (Transwior, Poland) and cage enrichment (tunnels, nesting material, wooden igloos, etc.). For behavioral tests, the mice were selected randomly; each group consisted of 7–10 mice. […] The procedures for maintenance and treatment of laboratory animals were approved by the first Local Ethics Committee in Krakow (Approval No. 645/2022, 760/2023, and 829/2024 and the treatment of animals was in full accordance with ethical standards laid down in respective Polish and EU regulations (Directive 2010/63/EU).
Scopolamine hydrobromide (Sigma-Aldrich, Poland) at the dose of 1 mg/kg was used to induce learning and memory deficits. For the in vivo tests, scopolamine was prepared in distilled water (Polfa Kutno, Poland) and was administered subcutaneously (s.c.) 30 min before behavioral tests during the acquisition (training) trial of PA and NOR tasks. […] They were administered intraperitoneally (i.p.) 60 min before the acquisition trial of the PA, NOR, and MWM tasks.
The experiment was conducted in opaque black boxes with dimensions of 50 × 50 × 50 cm. The 3 day procedure consists of habituation to the test arena (without any objects) for 10 min on the first day (T0), a training trial (T1), and a testing trial (T2) separated by a 24 h intertrial interval. During T1 (familiarization trial), two identical objects (A and B) were presented in the opposite corners of the arena, approximately 5 cm from its walls. During T2 (recognition trial), one of the objects (B) was replaced by a novel object (C), so that the animals were presented with A (familiar) and C (novel) objects. Both T1 and T2 trials lasted for 10 min, and after each trial, the animals returned to their home cages. White plastic round containers (height 5 cm, diameter 5 cm) attached to the ground with double-sided tape were used as the A, B objects, and green cuboids of similar height were used as object C. The objects were stable enough so that the animals could not displace them. The sequence of presentations and the location of the objects were randomly assigned to each mouse. The animals explored the objects by looking, licking, sniffing, or touching them while sniffing, but not when leaning against, standing, or sitting on the objects. Any mouse exploring the two objects for less than 5 s within the 10 min duration of T1 or T2 was eliminated from the study. An experimenter, blind to the drug treatment, measured the exploration time of the objects.

[3] = system: RSK2 (Kin.Dom.1-N-terminal)

What does the source list for CC(C)Cn1ncc2cc(Cc3ccc(F)cc3F)c(C(=O)NCCN(C)C)cc21 [Compound 94, 5-(2,4-Difluorobenzyl)-N-(2-(dimethylamino)ethyl)-1-isobutyl-1H-indazole-6-carboxamide]?
RA @ 1000nM (KIT(V559D,T670I)): 100%; RA @ 10000nM (KIT(V559D,T670I)): 100%; RA @ 1000nM (RAF1): 100%; RA @ 10000nM (RAF1): 100%; RA @ 1000nM (AXL): 97%; RA @ 10000nM (AXL): 89%; motor adverse effects (locomotor activity test) [1]: no motor adverse effects; RA @ 1000nM (PLK1): 100%; RA @ 10000nM (PLK1): 100%; RA @ 1000nM (PIK3C2B): 90%; RA @ 10000nM (PIK3C2B): 82%; RA @ 1000nM (BTK): 100%; RA @ 10000nM (BTK): 100%; RA @ 1000nM (ERK1): 87%; RA @ 10000nM (ERK1): 87%; RA @ 1000nM (YANK3): 100%; RA @ 10000nM (YANK3): 100%; RA @ 1000nM (RET): 100%; RA @ 10000nM (RET): 100%; RA @ 1000nM (EPHA2): 97%; RA @ 10000nM (EPHA2): 100%; RA @ 1000nM (MARK3): 100%; RA @ 10000nM (MARK3): 100%; RA @ 1000nM (PLK4): 100%; RA @ 10000nM (PLK4): 100%; RA @ 1000nM (FGFR3): 100%; RA @ 10000nM (FGFR3): 100%; cell viability (BV2 cells): did not affect cell viability; cell viability (HepG2 cells): did not affect cell viability; cell viability (SH-SY5Y cells): did not affect cell viability; RA @ 1000nM (AKT1): 100%; RA @ 10000nM (AKT1): 75%; RA @ 1000nM (MEK1): 98%; RA @ 10000nM (MEK1): 74%; RA @ 1000nM (ERK 2): 100%; RA @ 10000nM (ERK 2): 98%; IC50 (p38α MAPK): 377 nM and 156 ng/mL; RA @ 1000nM (PDGFRA): 96%; RA @ 10000nM (PDGFRA): 76%; RA @ 1000nM (PLK3): 100%; RA @ 10000nM (PLK3): 97%; RA @ 1000nM (ROCK2): 87%; RA @ 10000nM (ROCK2): 96%; efficacy in NOR task [2]: statistically ineffective; preference for the novel object (NOR task) [2]: statistically significant preference for the novel object; RA @ 1000nM [3]: 86%; RA @ 10000nM [3]: 65%; RA @ 1000nM (p38β): 72%; RA @ 10000nM (p38β): 15%; RA @ 1000nM (CDK2): 82%; RA @ 10000nM (CDK2): 97%; RA @ 1000nM (TIE2): 100%; RA @ 10000nM (TIE2): 100%; RA @ 1000nM (CSNK1G2): 96%; RA @ 10000nM (CSNK1G2): 93%; RA @ 1000nM (PAK1): 96%; RA @ 10000nM (PAK1): 94%; RA @ 1000nM (p38α): 2.3%; RA @ 10000nM (p38α): 0.4%; RA @ 1000nM (NLK): 100%; RA @ 10000nM (NLK): 98%; RA @ 1000nM (PIM3): 100%; RA @ 10000nM (PIM3): 100%; RA @ 1000nM (MEK2): 86%; RA @ 10000nM (MEK2): 80%; RA @ 1000nM (BRAF): 100%; RA @ 10000nM (BRAF): 100%; RA @ 1000nM (PKACα): 100%; RA @ 10000nM (PKACα): 96%

Which results are given for CN(C)CCNC(=O)c1cc2c(cnn2CC2CCCCC2)cc1Cc1ccc(F)cc1F [Compound 95, 1-(Cyclohexylmethyl)-5-(2,4-difluorobenzyl)-N-(2-(dimethylamino)ethyl)-1H-indazole-6-carboxamide]?
RA @ 1000nM (KIT(V559D,T670I)): 47%; RA @ 10000nM (KIT(V559D,T670I)): 94%; RA @ 1000nM (RAF1): 100%; RA @ 10000nM (RAF1): 100%; RA @ 1000nM (AXL): 84%; RA @ 10000nM (AXL): 83%; motor adverse effects (locomotor activity test) [1]: no motor adverse effects; RA @ 1000nM (PLK1): 100%; RA @ 10000nM (PLK1): 100%; RA @ 1000nM (PIK3C2B): 91%; RA @ 10000nM (PIK3C2B): 91%; RA @ 1000nM (BTK): 100%; RA @ 10000nM (BTK): 100%; RA @ 1000nM (ERK1): 96%; RA @ 10000nM (ERK1): 90%; RA @ 1000nM (YANK3): 100%; RA @ 10000nM (YANK3): 100%; RA @ 1000nM (RET): 100%; RA @ 10000nM (RET): 100%; RA @ 1000nM (EPHA2): 100%; RA @ 10000nM (EPHA2): 100%; RA @ 1000nM (MARK3): 79%; RA @ 10000nM (MARK3): 86%; RA @ 1000nM (PLK4): 100%; RA @ 10000nM (PLK4): 100%; RA @ 1000nM (FGFR3): 100%; RA @ 10000nM (FGFR3): 92%; cell viability (BV2 cells): did not affect cell viability; cell viability (HepG2 cells): did not affect cell viability; cell viability (SH-SY5Y cells): did not affect cell viability; RA @ 1000nM (AKT1): 100%; RA @ 10000nM (AKT1): 100%; RA @ 1000nM (MEK1): 98%; RA @ 10000nM (MEK1): 100%; RA @ 1000nM (ERK 2): 100%; RA @ 10000nM (ERK 2): 100%; IC50 (p38α MAPK): 191 nM and 87 ng/mL; RA @ 1000nM (PDGFRA): 92%; RA @ 10000nM (PDGFRA): 92%; RA @ 1000nM (PLK3): 88%; RA @ 10000nM (PLK3): 100%; RA @ 1000nM (ROCK2): 83%; RA @ 10000nM (ROCK2): 100%; efficacy in NOR task [2]: statistically ineffective; preference for the novel object (NOR task) [2]: statistically significant preference for the novel object; RA @ 1000nM [3]: 94%; RA @ 10000nM [3]: 94%; RA @ 1000nM (p38β): 84%; RA @ 10000nM (p38β): 18%; RA @ 1000nM (CDK2): 99%; RA @ 10000nM (CDK2): 100%; RA @ 1000nM (TIE2): 90%; RA @ 10000nM (TIE2): 100%; RA @ 1000nM (CSNK1G2): 100%; RA @ 10000nM (CSNK1G2): 98%; RA @ 1000nM (PAK1): 100%; RA @ 10000nM (PAK1): 93%; RA @ 1000nM (p38α): 6.7%; RA @ 10000nM (p38α): 0.1%; RA @ 1000nM (NLK): 100%; RA @ 10000nM (NLK): 100%; RA @ 1000nM (PIM3): 100%; RA @ 10000nM (PIM3): 100%; RA @ 1000nM (MEK2): 95%; RA @ 10000nM (MEK2): 100%; RA @ 1000nM (BRAF): 100%; RA @ 10000nM (BRAF): 100%; RA @ 1000nM (PKACα): 100%; RA @ 10000nM (PKACα): 94%
